Reference: patent US7807368B2, “Cyclin-dependent kinase inhibitors as targets for opiod growth factor treatment” (priority 2006, dated 2010)

Experiments:
SCC-1 cells = experiment: Growth of SCC-1 cells transfected with p16 siRNA or negative control siRNA; type: cell-based, human; settings: 10^-6 M OGF; for reduction in growth: negative control siRNA-transfected SCC-1 cells
Method: The p16-targeted siRNAs (antisense:5′ […]-3′; sense (SEQ ID NO:5): 5′ […]-3′(SEQ ID NO:6) were obtained as ready-annealed, purified duplex probes (Invitrogen, Carlsbad, Calif.). For transfection, 2×10^5 cells per well were seeded in 6-well plates containing 1 ml of serum-free media without antibiotics. In each well, 20 nM of p16-siRNA or control siRNA solutions in serum-free media were added. Cells were incubated for 4 h at 37° C. prior to the addition of OGF. Cultures were incubated for additional 20 h, and then 1 ml fresh complete media either lacking or containing OGF was added. At the indicated time points, cells were collected for growth curves or Western blotting. Three or more independent experiments were conducted. The control siRNAs were purchased from Ambion.

Rb protein = experiment: Western blot of Rb and phospho-Rb in synchronized BxPC-3 cells; type: cell-based, human
Method: Synchronized cells (2×10^6) from each treatment were solubilized in 200 μl RIPA buffer (1×PBS, 10 μM IGEPAL, 1 mg/ml SDS, 5 mg/ml deoxycholic acid), containing protease and phosphatase inhibitors (2 μg/ml aprotinin, 3 mg/ml phenylmethyl sulfonyl fluoride, 1 mM sodium orthovanidate, 1 μM okadaic acid). Total protein concentrations were measured using the DC protein assay kit (Bio-Rad Laboratories, Hercules, Calif.). Equal amounts of protein (40 μg) were subjected to 10% SDS-PAGE followed by transfer of proteins onto polyvinylidene difluoride (Millipore, Billerica, Mass.) using standard protocols.
The following antibodies were purchased from commercial sources: phospho-Rb (Ser795), phospho-Rb (Ser807/811) (Cell Signaling Technology, Beverly, Mass.); Cdk2, p57 (Santa Cruz Biotechnology, Santa Cruz, Calif.); p21, p27, total Rb (BD PharMingen, San Diego, Calif.); β-actin (Clone AC-15, Sigma-Aldrich).
Membranes were probed with secondary anti-rabbit or anti-mouse horseradish peroxidase-conjugated antibodies (GE Healthcare-Amersham Biosciences, Piscataway, N.J.), and developed using a chemiluminescence Western blotting detection system.
To determine equal loading of total protein samples, blots were re-probed with monoclonal antibody against β-actin at a dilution of 1:2000. If necessary, membranes were processed in stripping buffer (62.5 mM Tris-HCI and 100 mM β-mercaptoethanol/2% SDS, pH 6.7) at 50° C. before being re-probed.
To quantify expression levels or kinase activity, the optical density of each band was determined by densitometry and analyzed by QuickOne (Bio-Rad Laboratories). Each value was normalized to β-actin from the same blot. To report the changes due to OGF treatment, we calculated the fold increase by dividing the normalized value from the OGF treated samples by the normalized value of control samples at each time point; thus, increases due to OGF have values greater than one, and decreases due to OGF have values less than one. For all Western blot analyses, 3 or more independent experiments were performed.

[Met^5]-enkephalin [OGF]
Cell numbers vs control levels (SCC-1 cells; FIG. 4 growth curves, p<0.05): significantly reduced | reduction in growth (SCC-1 cells; 72 h): 24% | reduction in growth (SCC-1 cells; 96 h): 40% | level of phospho-Rb (Ser795) (Rb protein; 15, 18, and 21 hours, 10^-6 M OGF, significant at 21 hours (p<0.01)): decreased | phospho-Rb (pSer807/811) levels (Rb protein; OGF treatment, Western blot): did not alter | Expression of total Rb protein (Rb protein; after 21 hours of OGF treatment): not decreased
